Experimental data published in patent US9700042B2, “Nanoformulation of musk-derived bioactive ingredients for nanocosmetic applications” (priority 2014, dated 2017).

Tested on: tested microorganisms fungi and bacteria
Assay: Anti-microbial activities (disc diffusion, all test organisms)
Format: cell-based
Conditions: filter paper discs
Procedure: Pathogenic Fungi: Aspergillus niger, Aspergillus fumigatus, Aspergillus flavus, Fusarium oxysporum and Candida albicans were cultured on sabaroud dextrous agar media (Oxioid CM 41) at 25° C.
Pathogenic bacteria: Staphylococcus aureus and Pseudomonas aeroginosa were cultured on Mueller Hinton media (Oxioid CM 41) at 37° C.
Biological activity: Antimicrobial activities of the 3-hydroxyl p-Anisaldehyde (C8H8O3) and p-Hydroxy-acetophenone (C8H8O2) compounds were tested against the fungal species Aspergillus niger, Aspergillus fumigatus, Aspergillus flavus, Fusarium oxysporum and Candida albicans. […]
Antifungal activities: The agar disc diffusion method was used to evaluate the antifungal activities of the tested compounds (Bauer, A.W., et al., Antibiotic susceptibility testing by a standard single disk diffusion method, Amer. J. Clin. Pathol. 45:493-496 (1966)). […] The diameter of the inhibition zones were measured in millimeters after 4 days at 25±2° C. […]
Antibacterial activities: Antibacterial activities of the tested compounds were employed by used the agar disc diffusion method Hasenekoglu (1990). Suspension of the tested bacteria (10^6 CFU/μl ,O.D was measured calorimetry using spectrophotometer (Spectro, labomed, Inc.) at […]) were spread on Mueller Hinton Agar (Oxioid). […] The diameter of the inhibition zones were measured in millimeters after 24 h at 37° C. […]

CC(=O)c1ccc(O)cc1 [p-Hydroxyacetophenone]
Inhibition of growth of tested microorganisms (clear zones around discs): have the ability to inhibit the growth
